The experiment relates to human eye. Briefly: higher-order wavefront aberrations (rms) measured with a wavefront analyzer in subjects treated for 6 months. It is filed as in vivo. The conditions noted are these: human subjects treated for 6 months; 20 mg/day zeaxanthin (Z), 20 mg/day lutein (L), or 10 mg lutein+10 mg zeaxanthin per day (C, P-C); versus placebo; FIG. 1. The source says:
The wavefront aberration function is a way of quantifying the imperfections of the optics of the eye that cause degradation of retinal image quality. The “ideal” wavefront is generated when a “point” on the retina is imaged through the optics of the eye as a plane and flat surface just outside the eye. This means that all the rays emerging from the eye form a parallel bundle and are perpendicular to this plane. The “real” wavefront surface is not a perfect two-dimensional plane and reflects the aberrations present in the optical system. It is usually represented mathematically by a series of terms known as Zernike polynomials. A knowledge of the coefficients of the Zernike polynomials provides a complete description of the wavefront surface. In order to obtain one single number that describes the quality of the imaging system (in this case the human eye) the root mean square (rms) deviation is calculated by computing the root of the mean of the squares of the actual deviations from the ideal plane. The rms value is equivalent to a standard deviation, but the two functions compared are 2D surfaces (i.e., the ideal wavefront and the actual wavefront). The wavefront aberrations are measured with a wavefront analyzer (see, e.g., J. Refract. Surg. 2001; 17(5), S608-S612). […]

This is an account of results in patent publication US20080045605A1, “Image Quality in the Eye” (priority 2004, published 2008).

Molecules are shown by their SMILES.

`CC1=C(/C=C/C(C)=C/C=C/C(C)=C/C=C/C=C(C)/C=C/C=C(C)/C=C/C2=C(C)C[C@@H](O)CC2(C)C)C(C)(C)C[C@H](O)C1` [zeaxanthin]: the “higher-order wavefront aberrations in the human eye” value is listed as “reduction of higher-order wavefront aberrations”.
In the case of `CC1=C[C@H](O)CC(C)(C)[C@H]1/C=C/C(C)=C/C=C/C(C)=C/C=C/C=C(C)/C=C/C=C(C)/C=C/C1=C(C)C[C@@H](O)CC1(C)C` [lutein] it was “reduction of higher-order wavefront aberrations”.
